Reference: patent publication US10669272B2, “Substituted naphthyridinone compounds useful as T cell activators” (BRISTOL-MYERS SQUIBB COMPANY, priority 2018, dated 2020)
Read-outs that look alike come from different tables or passages of the source.

Tests used:
[1] = molecular target: T1, human DGKα (Homo sapiens, UniProt P23743); test: DGKα LIPGLO assay (extruded liposome substrate), in vitro DGK inhibition; type: biochemical
T1 construct: TVMV protease cleavage site (C); Hexa-His (C); made in house; host or cells: Sf9 insect cells (baculovirus, Bac-to-Bac)

[2] = molecular target: T2, human DGKζ (Homo sapiens, UniProt Q13574); test: DGKζ LIPGLO assay (extruded liposome substrate), in vitro DGK inhibition; type: biochemical; conditions: read-out: DGKz LIPGLO IC50
T2 construct: TVMV protease cleavage site (C); Hexa-His (C); made in house; host or cells: Sf9 insect cells (baculovirus, Bac-to-Bac)

[3] = tested on: Human venous whole blood; test: Human whole blood IFN-γ assay; type: cell-based; conditions: human whole blood, read-out: INFg Whole Blood Normalized Agonist EC50;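 also: blood from healthy donors exposed to compound for 1 h before stimulation with anti-CD3 and anti-CD28 at 1 µg/mL each, IFN-γ quantified in supernatant by AlphaLISA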
Method: Human Whole Blood IFN-γ Assay
Human venous whole blood (22.5 μL per well), obtained from healthy donors, was pre-treated with compounds for one hour at 37° C. in a humidified 95% air/5% CO2 incubator. The blood was stimulated with 2.5 μL anti-human CD3 and anti-CD28 mAb at a final concentration of 1 μg/mL each for 24 hours at 37° C. IFN-γ in the supernatants was measured using AlphLISA kit (Cat # AL217).

[4] = liposome (LIPGLO) assay, read-out: DGKa LIPGLO IC50
[5] = Homo sapiens, 24 h, normalized to 3 μM reference compound with anti-CD3 plus anti-CD28 as 100% activation
[6] = normalized to 3 μM reference compound with anti-CD3 plus anti-CD28 as 100% activation
[7] = DGKα liposome (LIPGLO) assay, read-out: DGKa LIPGLO IC50
[8] = anti-CD3 plus anti-CD28, 24 hours, 3 μM reference compound = 100% activation
[9] = Homo sapiens, 24 h, anti-CD3 plus anti-CD28, 24 hours, 3 μM reference compound = 100% activation

T2 sequence (Q13574 with tags, fused parts or gaps isoform Q13574-4): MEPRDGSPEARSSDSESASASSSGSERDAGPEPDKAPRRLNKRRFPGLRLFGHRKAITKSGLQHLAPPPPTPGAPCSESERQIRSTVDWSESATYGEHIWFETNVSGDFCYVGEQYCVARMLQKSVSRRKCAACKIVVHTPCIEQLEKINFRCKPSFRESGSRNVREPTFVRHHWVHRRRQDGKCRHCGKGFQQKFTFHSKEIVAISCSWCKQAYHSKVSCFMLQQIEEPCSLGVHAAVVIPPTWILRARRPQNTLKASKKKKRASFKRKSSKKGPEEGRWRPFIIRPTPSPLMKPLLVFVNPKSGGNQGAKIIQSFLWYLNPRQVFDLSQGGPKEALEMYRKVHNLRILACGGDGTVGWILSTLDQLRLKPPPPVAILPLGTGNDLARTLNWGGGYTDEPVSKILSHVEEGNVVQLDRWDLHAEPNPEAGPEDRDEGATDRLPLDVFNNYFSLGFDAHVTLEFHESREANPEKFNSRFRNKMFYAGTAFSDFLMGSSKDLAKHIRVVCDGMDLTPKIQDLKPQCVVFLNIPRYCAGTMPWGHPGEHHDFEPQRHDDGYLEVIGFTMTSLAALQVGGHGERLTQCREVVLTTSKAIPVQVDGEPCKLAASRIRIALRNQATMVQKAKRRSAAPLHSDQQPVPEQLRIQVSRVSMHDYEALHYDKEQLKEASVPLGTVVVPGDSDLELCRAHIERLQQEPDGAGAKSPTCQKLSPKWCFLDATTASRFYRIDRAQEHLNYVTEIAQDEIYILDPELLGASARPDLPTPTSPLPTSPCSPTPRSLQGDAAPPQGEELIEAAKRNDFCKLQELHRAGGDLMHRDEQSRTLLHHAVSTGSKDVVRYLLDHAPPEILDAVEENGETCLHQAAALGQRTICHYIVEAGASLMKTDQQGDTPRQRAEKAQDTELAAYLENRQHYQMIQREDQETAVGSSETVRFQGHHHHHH
T1 sequence (P23743 with tags, fused parts or gaps): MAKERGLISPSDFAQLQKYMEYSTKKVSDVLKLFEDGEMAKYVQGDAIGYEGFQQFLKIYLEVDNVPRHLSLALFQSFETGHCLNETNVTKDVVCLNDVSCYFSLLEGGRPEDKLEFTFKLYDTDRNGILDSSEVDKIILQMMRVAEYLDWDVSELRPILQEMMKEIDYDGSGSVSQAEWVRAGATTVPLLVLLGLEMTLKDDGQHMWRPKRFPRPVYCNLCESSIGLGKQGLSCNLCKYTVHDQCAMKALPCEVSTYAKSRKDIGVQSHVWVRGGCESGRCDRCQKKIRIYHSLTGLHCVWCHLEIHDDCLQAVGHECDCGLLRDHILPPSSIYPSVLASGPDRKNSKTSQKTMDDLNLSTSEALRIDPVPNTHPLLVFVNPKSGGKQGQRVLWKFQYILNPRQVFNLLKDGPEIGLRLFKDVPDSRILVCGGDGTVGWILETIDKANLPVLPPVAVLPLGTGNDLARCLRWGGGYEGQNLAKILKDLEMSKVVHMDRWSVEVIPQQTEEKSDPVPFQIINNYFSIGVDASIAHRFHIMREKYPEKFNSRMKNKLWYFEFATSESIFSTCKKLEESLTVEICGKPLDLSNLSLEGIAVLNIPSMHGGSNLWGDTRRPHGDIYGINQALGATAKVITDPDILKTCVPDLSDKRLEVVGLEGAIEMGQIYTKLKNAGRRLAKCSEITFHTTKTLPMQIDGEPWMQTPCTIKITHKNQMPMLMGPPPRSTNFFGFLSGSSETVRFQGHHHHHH

SMILES | IC50 [1, 4] [nM] | IC50 ([2]; liposome (LIPGLO) assay) [nM] | EC50 [3, 5] [nM] | EC50 [3, 6] [nM] | further results
CC(c1ccc(C2(C#N)CC2)cc1)N1C[C@H](C)N(c2cc(=O)n(C)c3ccc(C#N)nc23)C[C@H]1C (stereo partly drawn) [Example 1253] | 1900 | 340 | 1800 |  | 
CC(c1cccc(C(F)(F)F)n1)N1C[C@H](C)N(c2cc(=O)n(C)c3ccc(C#N)nc23)C[C@H]1C (single isomer, unassigned) [Example 636] | 12000 | 8000 |  | 3900 | 
CC(C)c1nc(CN2C[C@H](C)N(c3cc(=O)n(C)c4ccc(C#N)nc34)C[C@H]2C)no1 [Example 1432] | 2100 | 7700 | 20000 |  | 
C[C@@H]1CN(c2cc(=O)n(C)c3ccc(C#N)nc23)[C@@H](C)CN1C(c1ccc(F)cc1)c1csc(C(F)(F)F)n1 (single isomer, unassigned) [Example 1333] | 370 | 160 | 310 |  | 
CC(c1cccc2c1OC(F)(F)O2)N1C[C@H](C)N(c2cc(=O)n(C)c3ccc(C#N)nc23)C[C@H]1C (single isomer, unassigned) [Example 1217] | 37000 | 2100 |  | 4600 | 
Cc1ccc(C(c2cncc(F)c2)N2C[C@H](C)N(c3cc(=O)n(C)c4ccc(C#N)nc34)C[C@H]2C)cc1 (single isomer, unassigned) [Example 416] | 21000 | 14000 |  | 5200 | 
CCc1ccc(C(c2ccc(F)cc2)N2CCN(c3c(C#N)c(=O)n(C)c4ccc(C#N)nc34)C[C@H]2C)cc1 (stereo partly drawn) [Example 885] |  |  |  |  | IC50 [1, 7]: 3000 nM; IC50 ([2]; DGKζ liposome (LIPGLO) assay): 1200 nM; EC50 [3, 8]: 2400 nM
C[C@@H]1CN(c2c(C#N)c(=O)n(C)c3ccc(C#N)nc23)CCN1Cc1cccc(C#N)n1 [Example 989] |  |  |  |  | IC50 [1, 7]: 5200 nM; IC50 ([2]; DGKζ liposome (LIPGLO) assay): 32000 nM; EC50 [3, 9]: 20000 nM
COCc1cc(F)ccc1C(C)N1C[C@H](C)N(c2cc(=O)n(C)c3ccc(C#N)nc23)C[C@H]1C (single isomer, unassigned) [Example 1314] | 10000 | 49 | 460 |  | 
C[C@@H]1CN(c2c(C#N)c(=O)n(C)c3ccc(C#N)nc23)CCN1C(c1ccccc1)c1ccc(F)cc1 (single isomer, unassigned) [Example 878] |  |  |  |  | IC50 [1, 7]: 1900 nM; IC50 ([2]; DGKζ liposome (LIPGLO) assay): 1300 nM; EC50 [3, 8]: 570 nM
CC[C@H]1CN(Cc2cc(F)c(F)c(F)c2)[C@H](C)CN1c1cc(=O)n(C)c2ccc(C#N)nc12 [Example 1149] | 650 | 3500 | 510 |  | 
COc1ccc(C(C)N2C[C@H](C)N(c3c(C#N)c(=O)n(C)c4ccc(C#N)nc34)C[C@H]2C)nc1 (single isomer, unassigned) [Example 799] |  |  |  |  | IC50 [1, 7]: 860 nM; IC50 ([2]; DGKζ liposome (LIPGLO) assay): 9900 nM; EC50 [3, 8]: 20000 nM
C[C@@H]1CN(c2cc(=O)n(C)c3ccc(C#N)nc23)[C@@H](C)CN1C(c1ccc(F)cc1)C(F)(F)F (single isomer, unassigned) [Example 582] | 440 | 6000 |  | 1700 | 
C[C@@H]1CN(c2c(C#N)c(=O)n(C)c3ccc(C#N)nc23)CCN1C(c1ccc(F)cc1)c1nccs1 (single isomer, unassigned) [Example 1024] | 440 | 2200 | 1200 |  | 
C[C@@H]1CN(c2cc(=O)n(C)c3ccc(C#N)nc23)[C@@H](C)CN1C(c1ccc(O)cc1F)C(F)(F)F (stereo partly drawn) [Example 625] | 230 | 2400 | 700 |  | 
CC[C@H]1CN(C(C)c2ccc(OC(F)(F)F)cc2)[C@H](CC)CN1c1cc(=O)n(C)c2ccc(C#N)nc12 (single isomer, unassigned) [Example 1053] | 21 | 140 |  | 210 | 
C[C@@H]1CN(c2cc(=O)n(C)c3ccc(C#N)nc23)[C@@H](C)CN1C(c1ccc(F)cc1)c1nnnn1C(C)(C)C (single isomer, unassigned) [Example 770] |  |  |  |  | IC50 [1, 7]: 21000 nM; IC50 ([2]; DGKζ liposome (LIPGLO) assay): 1700 nM; EC50 [3, 9]: 8500 nM
CC[C@@H]1CN(c2cc(=O)n(C)c3ccc(C#N)nc23)[C@@H](C)CN1C(C)c1ccc(F)c(F)c1 (single isomer, unassigned) [Example 1092] | 3700 | 4000 |  | 3200 | 
C[C@@H]1CN(c2cc(=O)n(C)c3ccc(C#N)nc23)[C@@H](C)CN1C(c1ccc(F)cn1)c1cccc2c1OC(C)(C)C2 (single isomer, unassigned) [Example 465] | 200 | 980 | 20000 |  | 

SMILES | IC50 [1, 4] [nM] | IC50 ([2]; liposome (LIPGLO) assay) [nM] | EC50 [3, 5] [nM] | EC50 [3, 6] [nM] | further results
Cc1ccc(C(c2cccc(F)n2)N2C[C@H](C)N(c3cc(=O)n(C)c4ccc(C#N)nc34)C[C@H]2C)cc1 (single isomer, unassigned) [Example 479] | 910 | 1900 |  | 2100 | 
C[C@@H]1CN(c2cc(=O)n(C)c3ccc(C#N)nc23)[C@@H](C)CN1C(c1ccc(Cl)cc1)c1ccccn1 (mixture of isomers) [Example 403, 8-((2S,5R)-4-((4-chlorophenyl)(pyridin-2-yl)methyl)-2,5-dimethylpiperazin-1-yl)-5-methyl-6-oxo-5,6-dihydro-1,5-naphthyridine-2-carbonitrile] | 140 | 460 | 170 |  | 
CC[C@H]1CN(C(C)c2ccc(C(F)(F)F)cc2)[C@H](C)CN1c1cc(=O)n(C)c2ccc(C#N)nc12 (single isomer, unassigned) [Example 1144] | 260 | 1500 |  | 250 | 
CCOC[C@@H]1CN(c2cc(=O)n(C)c3ccc(C#N)nc23)[C@@H](C)CN1C(c1ccc(F)cc1)c1ccc(C(F)(F)F)cn1 (stereo partly drawn) [Example 1403] | 1100 | 45 |  | 1900 | 
C[C@@H]1CN(c2cc(=O)n(C)c3ccc(C#N)nc23)[C@@H](C)CN1C(c1ccc(F)cc1)c1ccc(P(C)(C)=O)cc1 (single isomer, unassigned) [Example 1292] | 8000 | 4100 | 12000 |  | 
CC[C@@H]1CN(c2cc(=O)n(C)c3ccc(C#N)nc23)[C@@H](C)CN1C(C)c1ccc(OC(F)F)cc1 (stereo partly drawn) [Example 1344] | 4.4 | 16 |  | 51 | 
Cc1ccc(C(c2ccc(C)cn2)N2C[C@H](C)N(c3cc(=O)n(C)c4ccc(C#N)nc34)C[C@H]2C)cc1 (single isomer, unassigned) [Example 454] | 230 | 540 | 470 |  | 
COC[C@@H]1CN(c2cc(=O)n(C)c3ccc(C#N)nc23)[C@@H](C)CN1C(c1ccc(F)cc1)c1ccc(C#N)cc1 (single isomer, unassigned) [Example 1157] | 4200 | 700 | 270 |  | 
Cc1ccc(C(c2ccc(Cl)cc2)N2CCN(c3c(C#N)c(=O)n(C)c4ccc(C#N)nc34)C[C@H]2C)cc1 (single isomer, unassigned) [Example 944] |  |  |  |  | IC50 [1, 7]: 37000 nM; IC50 ([2]; DGKζ liposome (LIPGLO) assay): 41000 nM; EC50 [3, 8]: 6700 nM
C[C@@H]1CN(c2c(C#N)c(=O)n(C)c3ccc(C#N)nc23)[C@@H](C)CN1C(c1ccc(F)cc1)c1ncccc1F (single isomer, unassigned) [Example 820] |  |  |  |  | IC50 [1, 7]: 920 nM; IC50 ([2]; DGKζ liposome (LIPGLO) assay): 2000 nM; EC50 [3, 9]: 2200 nM
CC(c1ccc2nccnc2c1)N1C[C@H](C)N(c2cc(=O)n(C)c3ccc(C#N)nc23)C[C@H]1C (single isomer, unassigned) [Example 650] | 2500 | 11 |  | 290 | 
CC(c1cccc(C(F)F)n1)N1C[C@H](C)N(c2cc(=O)n(C)c3ccc(C#N)nc23)C[C@H]1C (stereo partly drawn) [Example 1223] | 16 | 110 |  | 520 | 
CC(c1ccc(Cl)cc1)N1C[C@H](C)N(c2c(C#N)c(=O)n(C)c3ccc(C#N)nc23)C[C@H]1C (single isomer, unassigned) [Example 791] |  |  |  |  | IC50 ([1]; DGKa LIPGLO IC50, DGKα liposome (LIPGLO) assay): 1900 nM; IC50 ([2]; DGKζ liposome (LIPGLO) assay): 5700 nM; EC50 [3, 8]: 1300 nM
C[C@@H]1CN(c2c(C#N)c(=O)n(C)c3ccc(C#N)nc23)[C@@H](C)CN1C(c1ccc(Cl)cc1)c1ncccc1F (single isomer, unassigned) [Example 822] |  |  |  |  | IC50 [1, 7]: 2700 nM; IC50 ([2]; DGKζ liposome (LIPGLO) assay): 13000 nM; EC50 [3, 8]: 3200 nM
C[C@@H]1CN(c2c(C#N)c(=O)n(C)c3ccc(C#N)nc23)[C@@H](C)CN1C(c1ccc(F)cc1)c1csc(C2CC2)n1 (single isomer, unassigned) [Example 858] |  |  |  |  | IC50 [1, 7]: 480 nM; IC50 ([2]; DGKζ liposome (LIPGLO) assay): 150 nM; EC50 [3, 8]: 1700 nM
C[C@@H]1CN(c2cc(=O)n(C)c3ccc(C#N)nc23)[C@@H](C)CN1Cc1ccc(OC(F)(F)F)cc1Br [Example 593] | 3100 | 5900 | 1200 |  | 
COC[C@@H]1CN(c2cc(=O)n(C)c3ccc(C#N)nc23)[C@@H](C)CN1C(c1ccc(F)cc1)c1ccc(C#N)cc1 (single isomer, unassigned) [Example 1158] | 6500 | 1300 |  | 350 | 
CC[C@H]1CN(C(C)c2ccc(C3CC3)cc2)[C@H](CC)CN1c1cc(=O)n(C)c2ccc(C#N)nc12 (single isomer, unassigned) [Example 1355] | 62 | 33 |  | 28 | 
CC[C@@H]1CN(c2cc(=O)n(C)c3ccc(C#N)nc23)[C@@H](C)CN1C(c1ccc(F)cc1)c1ccc(C(F)(F)F)cn1 (single isomer, unassigned) [Example 1106] | 270 | 120 |  | 520 | 
